Assay [1] addresses T1, JAK2 (Homo sapiens, UniProt O60674).
T1 construct: JAK2-FLAG immunoprecipitated from HEK293 cells
Briefly: in-gel fluorescence after click labelling of immunoprecipitated protein. It is filed as binding.

The target of assay [2] is T2, IKKα (Homo sapiens, UniProt O15111).
T2 construct: gene CHUK; endogenous, MDA-MB-231 cells
T2 sequence (O15111 1-745): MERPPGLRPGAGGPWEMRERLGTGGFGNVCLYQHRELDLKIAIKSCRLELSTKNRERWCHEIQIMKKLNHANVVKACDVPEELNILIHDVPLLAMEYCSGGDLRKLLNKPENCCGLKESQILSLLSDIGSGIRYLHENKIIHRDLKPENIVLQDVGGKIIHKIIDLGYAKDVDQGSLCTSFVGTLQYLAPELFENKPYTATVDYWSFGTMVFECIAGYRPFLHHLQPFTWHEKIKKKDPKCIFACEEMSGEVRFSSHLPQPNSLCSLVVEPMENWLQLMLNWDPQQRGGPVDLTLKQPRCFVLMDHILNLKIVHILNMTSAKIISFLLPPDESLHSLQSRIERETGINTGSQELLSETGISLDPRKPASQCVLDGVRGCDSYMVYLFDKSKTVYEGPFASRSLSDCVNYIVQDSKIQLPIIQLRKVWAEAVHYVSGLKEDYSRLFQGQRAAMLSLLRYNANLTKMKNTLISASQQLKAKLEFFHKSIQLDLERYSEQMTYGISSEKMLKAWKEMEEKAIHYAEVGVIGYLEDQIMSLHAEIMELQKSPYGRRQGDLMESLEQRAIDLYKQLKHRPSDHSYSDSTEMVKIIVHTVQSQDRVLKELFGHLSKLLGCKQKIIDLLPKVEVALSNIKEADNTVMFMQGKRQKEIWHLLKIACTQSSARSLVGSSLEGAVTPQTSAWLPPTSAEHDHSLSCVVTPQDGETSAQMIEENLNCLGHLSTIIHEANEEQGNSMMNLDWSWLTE
As to the kind of experiment: click-chemistry pull-down from treated cells, competed by xanthatin. The assay is classed as cell-based.

In assay [3] the target is T3, Tyk2 (Homo sapiens, UniProt P29597).
T3 construct: endogenous, MDA-MB-231 cells
The description is as above. It is filed as cell-based.

For assay [4], the target named is T4, JAK1 (Homo sapiens, UniProt P23458).
T4 construct: endogenous, MDA-MB-231 cells
Described as above. The assay is classed as cell-based.

In assay [5] the target is T5, IKKβ (Homo sapiens, UniProt O14920).
T5 construct: gene IKBKB; IKKβ-FLAG immunoprecipitated from HEK293 cells
T5 sequence (O14920 1-756): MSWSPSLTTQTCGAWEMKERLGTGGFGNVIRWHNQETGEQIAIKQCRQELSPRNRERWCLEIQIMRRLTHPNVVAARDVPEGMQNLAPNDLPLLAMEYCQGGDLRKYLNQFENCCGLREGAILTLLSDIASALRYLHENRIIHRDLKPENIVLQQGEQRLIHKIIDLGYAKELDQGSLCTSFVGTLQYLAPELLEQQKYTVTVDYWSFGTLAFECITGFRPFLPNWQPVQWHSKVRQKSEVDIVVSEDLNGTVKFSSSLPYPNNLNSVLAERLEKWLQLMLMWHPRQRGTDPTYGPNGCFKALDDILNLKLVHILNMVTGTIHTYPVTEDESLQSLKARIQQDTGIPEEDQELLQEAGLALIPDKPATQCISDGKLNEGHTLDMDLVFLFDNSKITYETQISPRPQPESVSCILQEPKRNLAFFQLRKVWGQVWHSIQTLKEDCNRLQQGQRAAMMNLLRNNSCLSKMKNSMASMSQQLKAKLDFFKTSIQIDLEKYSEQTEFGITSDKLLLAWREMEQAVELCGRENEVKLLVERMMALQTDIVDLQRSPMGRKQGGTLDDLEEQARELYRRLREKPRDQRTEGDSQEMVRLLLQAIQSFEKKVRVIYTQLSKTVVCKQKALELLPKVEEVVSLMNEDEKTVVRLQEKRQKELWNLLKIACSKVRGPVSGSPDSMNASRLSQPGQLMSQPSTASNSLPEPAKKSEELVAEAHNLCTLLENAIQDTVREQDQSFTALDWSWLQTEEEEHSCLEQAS
As to the kind of experiment: in-gel fluorescence after click labelling of immunoprecipitated protein. It is filed as binding.

The target of assay [6] is T5, IKKβ. As to the kind of experiment: in vitro kinase assay with immunoprecipitated IKKβ; adducts confirmed by LC-MS/MS. The assay is classed as biochemical.
Assay [7] addresses T4, JAK1. As to the kind of experiment: competition of Alk-Xa pull-down in cells. It is filed as cell-based.
The target of assay [8] is T1, JAK2. Briefly: in vitro kinase assay with immunoprecipitated JAK2; adduct confirmed by LC-MS/MS. It is filed as biochemical.
Assay [9] deals with T2, IKKα. Briefly: competition of Alk-Xa pull-down in cells. The assay is classed as cell-based.
The target in assay [10] is T3, Tyk2. Briefly: competition of Alk-Xa pull-down in cells. It is filed as cell-based.

The structures appear in SMILES notation.

T1 sequence (O60674 whole entry): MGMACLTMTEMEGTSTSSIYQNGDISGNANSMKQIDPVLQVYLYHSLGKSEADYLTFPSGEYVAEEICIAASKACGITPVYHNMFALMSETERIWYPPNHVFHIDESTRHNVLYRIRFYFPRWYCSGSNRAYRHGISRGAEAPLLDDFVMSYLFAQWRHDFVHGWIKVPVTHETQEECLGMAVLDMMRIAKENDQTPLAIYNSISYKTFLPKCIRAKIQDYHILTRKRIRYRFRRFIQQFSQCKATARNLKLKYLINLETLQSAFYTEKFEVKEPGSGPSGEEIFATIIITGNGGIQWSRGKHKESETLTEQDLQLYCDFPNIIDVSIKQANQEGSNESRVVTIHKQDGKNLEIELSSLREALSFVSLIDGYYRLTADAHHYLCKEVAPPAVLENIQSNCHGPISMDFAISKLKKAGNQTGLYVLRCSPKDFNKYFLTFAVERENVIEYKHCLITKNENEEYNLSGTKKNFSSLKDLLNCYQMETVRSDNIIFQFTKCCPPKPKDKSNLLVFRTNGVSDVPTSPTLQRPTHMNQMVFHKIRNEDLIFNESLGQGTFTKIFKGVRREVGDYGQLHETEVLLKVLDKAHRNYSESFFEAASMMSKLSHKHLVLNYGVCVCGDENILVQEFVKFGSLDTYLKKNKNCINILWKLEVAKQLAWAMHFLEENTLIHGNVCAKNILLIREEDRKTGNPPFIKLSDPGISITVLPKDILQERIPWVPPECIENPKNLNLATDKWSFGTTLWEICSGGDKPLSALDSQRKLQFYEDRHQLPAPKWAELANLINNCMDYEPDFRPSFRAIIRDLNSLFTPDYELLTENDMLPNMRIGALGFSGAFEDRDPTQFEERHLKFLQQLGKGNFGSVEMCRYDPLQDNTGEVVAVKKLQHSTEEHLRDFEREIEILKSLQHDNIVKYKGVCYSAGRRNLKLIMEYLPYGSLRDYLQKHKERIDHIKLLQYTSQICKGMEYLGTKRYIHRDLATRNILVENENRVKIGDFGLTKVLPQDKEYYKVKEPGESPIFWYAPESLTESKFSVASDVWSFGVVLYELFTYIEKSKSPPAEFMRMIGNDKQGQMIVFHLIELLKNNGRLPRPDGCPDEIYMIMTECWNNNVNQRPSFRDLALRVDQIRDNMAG
T4 sequence (P23458 whole entry): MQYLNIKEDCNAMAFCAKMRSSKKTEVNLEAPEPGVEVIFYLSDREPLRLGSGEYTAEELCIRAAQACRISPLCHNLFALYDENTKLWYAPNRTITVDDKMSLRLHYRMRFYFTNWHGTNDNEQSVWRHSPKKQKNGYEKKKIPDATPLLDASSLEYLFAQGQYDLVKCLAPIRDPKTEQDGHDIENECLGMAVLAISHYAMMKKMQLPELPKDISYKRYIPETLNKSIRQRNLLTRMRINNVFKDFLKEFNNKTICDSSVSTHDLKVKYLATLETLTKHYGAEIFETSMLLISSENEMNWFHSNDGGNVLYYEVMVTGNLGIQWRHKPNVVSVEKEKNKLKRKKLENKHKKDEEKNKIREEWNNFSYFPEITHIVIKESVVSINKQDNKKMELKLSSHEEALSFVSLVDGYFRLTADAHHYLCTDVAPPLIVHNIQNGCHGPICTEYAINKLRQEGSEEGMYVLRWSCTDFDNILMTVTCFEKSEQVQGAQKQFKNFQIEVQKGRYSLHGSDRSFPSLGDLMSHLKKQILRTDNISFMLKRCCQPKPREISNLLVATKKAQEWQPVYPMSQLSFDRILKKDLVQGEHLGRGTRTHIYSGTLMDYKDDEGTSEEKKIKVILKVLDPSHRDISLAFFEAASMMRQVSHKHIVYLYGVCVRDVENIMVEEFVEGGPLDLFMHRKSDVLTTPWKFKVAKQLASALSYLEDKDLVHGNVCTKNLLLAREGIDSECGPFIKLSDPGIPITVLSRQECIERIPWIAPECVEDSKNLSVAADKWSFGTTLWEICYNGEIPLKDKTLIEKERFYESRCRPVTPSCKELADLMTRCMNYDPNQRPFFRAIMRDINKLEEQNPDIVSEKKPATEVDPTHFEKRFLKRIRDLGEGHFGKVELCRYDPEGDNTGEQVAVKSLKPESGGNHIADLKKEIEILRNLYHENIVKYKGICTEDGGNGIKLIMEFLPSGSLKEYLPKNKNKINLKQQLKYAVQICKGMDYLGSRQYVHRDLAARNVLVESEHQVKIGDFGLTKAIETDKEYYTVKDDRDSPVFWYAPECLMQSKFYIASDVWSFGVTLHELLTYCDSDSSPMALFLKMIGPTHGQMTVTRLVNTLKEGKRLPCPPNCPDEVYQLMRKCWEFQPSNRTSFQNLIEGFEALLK
T3 sequence (P29597 whole entry): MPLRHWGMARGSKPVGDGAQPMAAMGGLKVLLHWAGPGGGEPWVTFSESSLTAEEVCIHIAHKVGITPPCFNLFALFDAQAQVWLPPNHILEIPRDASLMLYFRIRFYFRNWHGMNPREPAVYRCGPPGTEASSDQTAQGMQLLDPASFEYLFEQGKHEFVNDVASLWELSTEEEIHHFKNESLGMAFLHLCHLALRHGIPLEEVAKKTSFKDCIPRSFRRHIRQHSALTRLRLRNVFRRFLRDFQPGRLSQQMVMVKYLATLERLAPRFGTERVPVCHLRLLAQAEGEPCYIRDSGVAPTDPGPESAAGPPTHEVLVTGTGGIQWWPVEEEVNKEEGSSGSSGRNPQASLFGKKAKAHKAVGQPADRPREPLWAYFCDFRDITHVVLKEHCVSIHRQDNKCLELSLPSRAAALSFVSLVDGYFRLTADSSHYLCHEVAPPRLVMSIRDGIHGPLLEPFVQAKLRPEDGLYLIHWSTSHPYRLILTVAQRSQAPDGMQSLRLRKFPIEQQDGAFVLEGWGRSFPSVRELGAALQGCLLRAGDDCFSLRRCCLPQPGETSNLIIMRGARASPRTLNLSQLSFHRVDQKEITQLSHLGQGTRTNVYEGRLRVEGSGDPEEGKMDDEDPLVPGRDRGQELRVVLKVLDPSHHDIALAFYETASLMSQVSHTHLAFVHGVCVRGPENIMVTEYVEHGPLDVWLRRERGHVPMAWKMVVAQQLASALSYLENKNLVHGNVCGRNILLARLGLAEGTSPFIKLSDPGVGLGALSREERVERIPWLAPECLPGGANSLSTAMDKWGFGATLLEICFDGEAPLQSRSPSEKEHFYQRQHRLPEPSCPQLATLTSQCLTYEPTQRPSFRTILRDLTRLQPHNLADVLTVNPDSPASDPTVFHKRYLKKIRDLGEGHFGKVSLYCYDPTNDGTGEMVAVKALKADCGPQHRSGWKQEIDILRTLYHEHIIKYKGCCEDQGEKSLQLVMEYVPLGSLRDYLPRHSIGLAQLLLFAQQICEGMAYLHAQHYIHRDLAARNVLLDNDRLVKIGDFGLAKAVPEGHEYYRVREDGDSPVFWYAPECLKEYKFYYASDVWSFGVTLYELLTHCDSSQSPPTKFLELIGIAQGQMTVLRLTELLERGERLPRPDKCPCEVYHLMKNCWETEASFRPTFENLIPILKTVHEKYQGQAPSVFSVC

On to `C#CCNC(=O)/C=C/C1=CC[C@@H]2C(=C)C(=O)O[C@H]2C[C@@H]1C` [Alk-Xa, Alk‐Xa], for which the “in-gel fluorescence after click labelling of immunoprecipitated protein” value on JAK2 [1] was “fluorescence intensity of JAK2 and IKKβ was proportional to the dosage of Alk‐Xa, indicating that Alk‐Xa covalently bound”; on IKKβ [5], “fluorescence intensity of JAK2 and IKKβ was proportional to the dosage of Alk‐Xa, indicating that Alk‐Xa covalently bound”. The “click-chemistry pull-down from treated cells, competed by xanthatin” value was “JAK1, JAK2, Tyk2, IKKα and IKKβ were pulled down with the Alk‐Xa” on IKKα [2]; “JAK1, JAK2, Tyk2, IKKα and IKKβ were pulled down with the Alk‐Xa” at Tyk2 [3]; “JAK1, JAK2, Tyk2, IKKα and IKKβ were pulled down with the Alk‐Xa” at JAK1 [4].
`C=C1C(=O)O[C@H]2C[C@H](C)C(/C=C/C(C)=O)=CC[C@H]12` [Xa, xanthatin]: the IC50 on IKKβ [6] worked out at 11.3 µM; against JAK2 [8], 4.08 µM. In addition, the “competition of Alk-Xa pull-down in cells” value on JAK1 [7], on IKKα [9] and on Tyk2 [10] was “the interactions could be competed away by excessive unlabelled xanthatin” each time.

The record behind these values is paper PMC6533482, “Xanthatin inhibits STAT3 and NF‐κB signalling by covalently binding to JAK and IKK kinases” (Journal of Cellular and Molecular Medicine, 2019).
